Reference: PubChem BioAssay AID2060486 (Molecular Pharmacology Branch, DTP, NCI, 2025)

Tested on: IGROV1 complex spheroids (HUVEC, MSC), viability % test/control
Test: Anticancer human tumor IGROV1 cell line growth inhibition [GQUAD];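 also: spheroids exposed to compounds for 7 days before readout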;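 as to viability, T/C: 100% = DMSO vehicle control viability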
Conditions: for IC50: curve of first compound; for viability, T/C: stronger effect = lower value
Procedure, shortened: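 Multi-cell-type spheroids of tumor cells with HUVEC and mesenchymal stem cells, treated with drug combinations. Concentrations descend in half-log steps from near clinical Cmax, or from 10 microM where Cmax is unknown; viability read-out.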

[1] = second compound 0.0316 µM, first compound 0.0316 µM
[2] = second compound 0.0316 µM, first compound 0.1 µM
[3] = second compound 0.0316 µM, first compound 0.316 µM
[4] = second compound 0.0316 µM, first compound 1 µM
[5] = second compound 0.0316 µM, first compound 3.16 µM
[6] = second compound 0.0316 µM, first compound 10 µM
[7] = second compound 0.1 µM, first compound 0.0316 µM
[8] = second compound 0.1 µM, first compound 0.1 µM
[9] = second compound 0.1 µM, first compound 0.316 µM
[10] = second compound 0.1 µM, first compound 1 µM
[11] = second compound 0.1 µM, first compound 3.16 µM
[12] = second compound 0.1 µM, first compound 10 µM
[13] = second compound 0.316 µM, first compound 0.0316 µM
[14] = second compound 0.316 µM, first compound 0.1 µM
[15] = second compound 0.316 µM, first compound 0.316 µM
[16] = second compound 0.316 µM, first compound 1 µM
[17] = second compound 0.316 µM, first compound 3.16 µM
[18] = second compound 0.316 µM, first compound 10 µM
[19] = second compound 1 µM, first compound 0.0316 µM
[20] = second compound 1 µM, first compound 0.1 µM
[21] = second compound 1 µM, first compound 0.316 µM
[22] = second compound 1 µM, first compound 1 µM
[23] = second compound 1 µM, first compound 3.16 µM
[24] = second compound 1 µM, first compound 10 µM
[25] = second compound 3.16 µM, first compound 0.0316 µM
[26] = second compound 3.16 µM, first compound 0.1 µM
[27] = second compound 3.16 µM, first compound 0.316 µM
[28] = second compound 3.16 µM, first compound 1 µM
[29] = second compound 3.16 µM, first compound 3.16 µM
[30] = second compound 3.16 µM, first compound 10 µM
[31] = second compound 10 µM, first compound 0.0316 µM
[32] = second compound 10 µM, first compound 0.1 µM
[33] = second compound 10 µM, first compound 0.316 µM
[34] = second compound 10 µM, first compound 1 µM
[35] = second compound 10 µM, first compound 3.16 µM
[36] = second compound 10 µM, first compound 10 µM

With `COc1ncnc(C2CC2)c1-c1ncc2cnn(Cc3ccc(-c4nc(C(F)(F)F)cn4C(C)C)cc3)c2n1` + CN(C)c1ccc(Nc2c3ccc(NC(=O)CCN4CCCC4)cc3nc3cc(NC(=O)CCN4CCCC4)ccc23)cc1 the IC50 (second compound 0.0316 µM) was > 10000 nM, the IC50 (second compound 0.1 µM) was > 10000 nM and the IC50 (second compound 0.316 µM) was > 10000 nM. The IC50 (second compound 1 µM) was > 10000 nM, the IC50 (second compound 3.16 µM) was > 10000 nM and the IC50 (second compound 10 µM) was 237 nM. For the same compound, the viability, T/C [1] was 93.5%, the viability, T/C [2] was 99% and the viability, T/C [3] was 95.3%. The viability, T/C [4] was 89.2%, the viability, T/C [5] was 104% and the viability, T/C [6] was 83.2%. For the same compound, the viability, T/C [7] was 86.9%, the viability, T/C [8] was 93% and the viability, T/C [9] was 94.1%. The viability, T/C [10] was 78.2%, the viability, T/C [11] was 100% and the viability, T/C [12] was 82.2%. It also gave a viability, T/C [13] of 77.3%, a viability, T/C [14] of 88.4% and a viability, T/C [15] of 103%. It also gave a viability, T/C [16] of 79.2%, a viability, T/C [17] of 93.2% and a viability, T/C [18] of 82.2%. For the same compound, the viability, T/C [19] was 66.5%, the viability, T/C [20] was 89.1% and the viability, T/C [21] was 98.7%. It also gave a viability, T/C [22] of 74%, a viability, T/C [23] of 83.4% and a viability, T/C [24] of 80.9%. It also gave a viability, T/C [25] of 52.1%, a viability, T/C [26] of 69.2% and a viability, T/C [27] of 75.3%. The viability, T/C [28] was 88.8%, the viability, T/C [29] was 75% and the viability, T/C [30] was 62.5%. For the same compound, the viability, T/C [31] was 50%, the viability, T/C [32] was 53% and the viability, T/C [33] was 51.5%. It also gave a viability, T/C [34] of 41.6%, a viability, T/C [35] of 37.7% and a viability, T/C [36] of 9.91%.

`O=C(NO)c1cnc(N2CCN(S(=O)(=O)c3ccc4ccccc4c3)CC2)nc1` + CN(C)c1ccc(Nc2c3ccc(NC(=O)CCN4CCCC4)cc3nc3cc(NC(=O)CCN4CCCC4)ccc23)cc1 gave an IC50 (second compound 0.0316 µM) of 60.1 nM, an IC50 (second compound 0.1 µM) of 63.6 nM and an IC50 (second compound 0.316 µM) of 55.6 nM. The IC50 (second compound 1 µM) was 41.4 nM, the IC50 (second compound 3.16 µM) was 47.2 nM and the IC50 (second compound 10 µM) was < 31.6 nM. It also gave a viability, T/C [1] of 69.9%, a viability, T/C [2] of 34.2% and a viability, T/C [3] of 4.85%. The viability, T/C [4] was 0.26%, the viability, T/C [5] was 0.09% and the viability, T/C [6] was 0.1%. It also gave a viability, T/C [7] of 74.8%, a viability, T/C [8] of 33.9% and a viability, T/C [9] of 4.46%. For the same compound, the viability, T/C [10] was 0.26%, the viability, T/C [11] was 0.07% and the viability, T/C [12] was 0.09%. For the same compound, the viability, T/C [13] was 66.6%, the viability, T/C [14] was 32.6% and the viability, T/C [15] was 5.36%. For the same compound, the viability, T/C [16] was 0.25%, the viability, T/C [17] was 0.06% and the viability, T/C [18] was 0.08%. For the same compound, the viability, T/C [19] was 58%, the viability, T/C [20] was 23.6% and the viability, T/C [21] was 3.31%. For the same compound, the viability, T/C [22] was 0.23%, the viability, T/C [23] was 0.06% and the viability, T/C [24] was 0.08%. For the same compound, the viability, T/C [25] was 64.3%, the viability, T/C [26] was 23.4% and the viability, T/C [27] was 3.69%. The viability, T/C [28] was 0.27%, the viability, T/C [29] was 0.07% and the viability, T/C [30] was 0.08%. It also gave a viability, T/C [31] of 45.4%, a viability, T/C [32] of 14.4% and a viability, T/C [33] of 3.73%. For the same compound, the viability, T/C [34] was 0.21%, the viability, T/C [35] was 0.12% and the viability, T/C [36] was 0.11%.

Compound `CC1COCCN1c1cc(C2(S(C)(=N)=O)CC2)nc(-c2ccnc3[nH]ccc23)n1` (stereo not drawn) + Cc1[nH]c2ccc(F)cc2c1-c1nc2c3cccnc3c3ncccc3c2[nH]1 has an IC50 (second compound 0.0316 µM) of 986 nM, an IC50 (second compound 0.1 µM) of 884 nM and an IC50 (second compound 0.316 µM) of 426 nM. The IC50 (second compound 1 µM) was < 31.6 nM, the IC50 (second compound 3.16 µM) was < 31.6 nM and the IC50 (second compound 10 µM) was < 31.6 nM. For the same compound, the viability, T/C [1] was 80%, the viability, T/C [2] was 86.7% and the viability, T/C [3] was 80.4%. The viability, T/C [4] was 49.2%, the viability, T/C [5] was 14.5% and the viability, T/C [6] was 7.71%. For the same compound, the viability, T/C [7] was 87.4%, the viability, T/C [8] was 98.1% and the viability, T/C [9] was 74.4%. It also gave a viability, T/C [10] of 48.9%, a viability, T/C [11] of 13.7% and a viability, T/C [12] of 6.84%. The viability, T/C [13] was 81.5%, the viability, T/C [14] was 74.3% and the viability, T/C [15] was 60.9%. The viability, T/C [16] was 21.1%, the viability, T/C [17] was 7.66% and the viability, T/C [18] was 3.74%. The viability, T/C [19] was 4.68%, the viability, T/C [20] was 4.27% and the viability, T/C [21] was 4.11%. It also gave a viability, T/C [22] of 3.67%, a viability, T/C [23] of 4.03% and a viability, T/C [24] of 2.64%. For the same compound, the viability, T/C [25] was 4.14%, the viability, T/C [26] was 5.15% and the viability, T/C [27] was 4.92%. The viability, T/C [28] was 4.78%, the viability, T/C [29] was 3.97% and the viability, T/C [30] was 2.94%. It also gave a viability, T/C [31] of 3.9%, a viability, T/C [32] of 4.76% and a viability, T/C [33] of 5.04%. For the same compound, the viability, T/C [34] was 3.7%, the viability, T/C [35] was 3.55% and the viability, T/C [36] was 2.63%.

`COc1ccc([C@@H](O)c2cc(-c3ncnc4cc(N5CCOCC5)ccc34)c(F)cc2Cl)nn1` + Cc1[nH]c2ccc(F)cc2c1-c1nc2c3cccnc3c3ncccc3c2[nH]1 showed an IC50 (second compound 0.0316 µM) of 797 nM, an IC50 (second compound 0.1 µM) of 812 nM and an IC50 (second compound 0.316 µM) of 762 nM. For the same compound, the IC50 (second compound 1 µM) was < 31.6 nM, the IC50 (second compound 3.16 µM) was < 31.6 nM and the IC50 (second compound 10 µM) was < 31.6 nM. The viability, T/C [1] was 92%, the viability, T/C [2] was 76.5% and the viability, T/C [3] was 86.5%. For the same compound, the viability, T/C [4] was 40.7%, the viability, T/C [5] was 21.9% and the viability, T/C [6] was 6.2%. The viability, T/C [7] was 92.2%, the viability, T/C [8] was 89.6% and the viability, T/C [9] was 91.5%. It also gave a viability, T/C [10] of 40.6%, a viability, T/C [11] of 19.5% and a viability, T/C [12] of 5.14%. The viability, T/C [13] was 66.3%, the viability, T/C [14] was 83.1% and the viability, T/C [15] was 82.6%. The viability, T/C [16] was 41.5%, the viability, T/C [17] was 12.3% and the viability, T/C [18] was 4.85%. It also gave a viability, T/C [19] of 3.85%, a viability, T/C [20] of 4.89% and a viability, T/C [21] of 4.79%. The viability, T/C [22] was 4.97%, the viability, T/C [23] was 4% and the viability, T/C [24] was 5.1%. The viability, T/C [25] was 3.89%, the viability, T/C [26] was 4.57% and the viability, T/C [27] was 3.71%. The viability, T/C [28] was 4.88%, the viability, T/C [29] was 3.87% and the viability, T/C [30] was 3.46%. It also gave a viability, T/C [31] of 3.68%, a viability, T/C [32] of 3.5% and a viability, T/C [33] of 4.28%. It also gave a viability, T/C [34] of 4.13%, a viability, T/C [35] of 5.35% and a viability, T/C [36] of 3.84%.
